# Experimental data taken from patent US6093731A, “Isoquinolines” (priority 1999, dated 2000).
# Where a name gives a salt, the structure may show the parent alone.
# Biological target: T1, human urokinase (Homo sapiens, UniProt P00749)
# T1 construct: the urokinase used was HMWT Human Urokinase (Calbiochem 672081); purchased Calbiochem 672081
# Experiment: urokinase inhibition assay (S-2444 substrate)
# Assay type: biochemical
# Settings: not given
row,Ki [nM],SMILES
1,≤ 20,"NC(N)=Nc1ncc(Cl)c2ccc(S(=O)(=O)N3CCC[C@@H]3C(=O)O)cc12 [Example 32(b), N-[(4-Chloro-1-guanidino-7-isoquinolinyl)sulphonyl]-D-proline hydrochloride]"
2,≤ 20,"NC(N)=Nc1ncc(Cl)c2ccc(S(=O)(=O)NC3(C(=O)O)CCCCC3)cc12 [43(b), 1-{[(4-Chloro-1-guanidino-7-isoquinolinyl)sulphonyl]amino}cyclohexanecarboxylic acid hydrochloride]"
3,≤ 20,"CN1CCN(C(=O)C2(NS(=O)(=O)c3ccc4c(Cl)cnc(N=C(N)N)c4c3)CCCC2)CC1 [Example 79, 4-Chloro-1-guanidino-N-{1-[(4-methylpiperazino)carbonyl]cyclopentyl}-7-isoquinolinesulphonamide dihydrochloride]"
4,≤ 20,"NC(N)=Nc1ncc(Cl)c2ccc(S(=O)(=O)NC3(C(=O)N4CCOCC4)CCCC3)cc12 [Example 78, 4-Chloro-1-guanidino-N-[1-(morpholinocarbonyl)cyclopentyl]-7-isoquinolinesulphonamide hydrochloride]"

# Same assay, conditions: read-out: Ki values vs. urokinase
row,SMILES,Ki [nM]
1,"COCCNC(=O)C1(NS(=O)(=O)c2ccc3c(Cl)cnc(NC(=N)N)c3c2)CCCC1 [Example 76, 1-[({4-Chloro-1-guanidino-7-isoquinolinyl}sulphonyl)amino]-N-(2-methoxyethyl)cyclopentanecarboxamide hydrochloride]",≤ 20
2,"NC(N)=Nc1ncc(Cl)c2ccc(S(=O)(=O)N3CCOC(=O)C34CCCC4)cc12 [Example 87(c), N""-{4-Chloro-7-[(10-oxo-9-oxa-6-azaspiro [4.5]dec-6-yl)sulphonyl]-1-isoquinolinyl}guanidine hydrochloride]",≤ 20
3,"CN(C)CCN(C1(C(=O)O)CCCC1)S(=O)(=O)c1ccc2c(Br)cnc(NC(=N)N)c2c1 [84(b), N-({4-Bromo-1-guanidino-7-isoquinolinyl}sulphonyl)-N-[2-(dimethylamino)ethyl]cycloleucine dihydrochloride]",≤ 20
4,"CN(CCO)C(=O)C1(NS(=O)(=O)c2ccc3c(Cl)cnc(NC(=N)N)c3c2)CCCC1 [Example 75, 1-[({4-Chloro-1-guanidino-7-isoquinolinyl}sulphonyl)amino]-N-(2-hydroxyethyl)-N-methylcyclopentanecarboxamide hydrochloride]",≤ 20
5,"N=C(N)Nc1ncc(Cl)c2ccc(S(=O)(=O)N(CCOC3CCCCO3)C3(C(=O)O)CCCC3)cc12 (stereo not drawn) [Example 87(b), 1-{[(4-Chloro-1-guanidino-7-isoquinolinyl)sulphonyl][2-(tetrahydro-2H-pyran-2-yloxy)ethyl]amino}cyclopentanecarboxylic acid]",≤ 20

# Next, values leading:
row,Ki [nM],SMILES
1,≤ 20,"NC(N)=Nc1ncc(Cl)c2ccc(S(=O)(=O)NC3(C(=O)O)CCCC3)cc12 [37(b), N-[(4-Chloro-1-guanidino-7-isoquinolinyl)sulphonyl]cycloleucine]"
2,≤ 20,"NC(N)=Nc1ncc(Cl)c2ccc(S(=O)(=O)NC3(C(=O)NCCO)CCCC3)cc12 [Example 38, 1-{[(4-Chloro-1-guanidino-7-isoquinolinyl)sulphonyl]amino}-N-(2-hydroxyethyl)cyclopentanecarboxamine hydrochloride]"
3,≤ 20,"CN(C)CCNC(=O)C1(NS(=O)(=O)c2ccc3c(Cl)cnc(N=C(N)N)c3c2)CCCC1 [Example 39(a), 1-{[(4-Chloro-1-guanidino-7-isoquinolinyl)sulphonyl]amino}-N-[2-(dimethylamino)ethyl]cyclopentanecarboxamine]"
